Entries after “also recorded” stand apart in the source; their conditions may differ.
How the values were obtained:
Assay type in all cases: physicochemical
[1] = Spectral characteristics: molar extinction coefficient and specific absorbance (UV spectrophotometry in ethyl acetate); conditions: 10 μg/ml; for Maximum molar extinction coefficient UVA / Maximum specific absorbance UVA: UVA band; for Maximum molar extinction coefficient UVB / Maximum specific absorbance UVB: UVB band; for Maximum specific absorbance UVA / Maximum specific absorbance UVB: A1cm^1%; for Wavelength of maximum molar extinction coefficient UVA / Wavelength of maximum molar extinction coefficient UVB / Wavelength of maximum specific absorbance UVA / Wavelength of maximum specific absorbance UVB: the 'at ...' part of the cell
Source text: The calculation of the molar extinction coefficient (ε) is made from the Beer-Lambert law:
[formula] Wherein: • A=absorbance • I0=intensity of the incident light • I=intensity of the transmitted light • ε=molar extinction (or molar absorbance) coefficient in M^−1 cm^−1 • l=path length in cm • c=concentration in mol/l
The molar extinction coefficient can be expressed with respect to a given mass of the product. It thus makes it possible to be able to compare the coefficients of extinction between products for the same given quantity. This quantity is 1% by weight. The molar extinction coefficient thus becomes the specific absorbance (A1cm^1%).
It is expressed as follows:
[formula] Wherein: • A1cm^1%=specific absorbance • ε=molar extinction coefficient • M=molar mass
The spectral characteristics of the compounds in comparison with commercial filters at a concentration of 10 μg/ml are summarized in tables 2-1 and 2-2.
Procedure: The products are dissolved in ethyl acetate to a concentration of 10 μg/ml. The spectra are measured using a dual-beam spectrophotometer (Varian CARY 50 Scan) between 290 nm and 400 nm.

[2] = Solubility study in solvents or excipients used in cosmetics; conditions: for Solubilities: Soluble, DMSO: solvent DMSO; for Solubilities: Soluble, Transcutol: solvent Transcutol; for Solubilities: Soluble (solvent in which the compound is soluble): value = solvent; for Solubilities: Insoluble (solvent in which the compound is insoluble): value = solvent named in the Insoluble column
[3] = Spectral distribution in UVA and UVB, 290 nm to 400 nm; conditions: for Spectral distribution (UV bands absorbed): absorption spectra, FIGS. 1-3; for Absorption peaks: range from 290 nm to 400 nm
Source text: The products tested are classified according to spectral distribution in UVA and UVB in a range from 290 nm to 400 nm. It is possible to differentiate them according to their spectral distribution: Products with a narrow spectrum: • Products absorbing in the range between 280 nm and 320 nm (UVB) • Products absorbing in the range between 320 nm and 400 nm (UVA) Products with a broad spectrum: • Products absorbing in UVB (280-320 nm) and UVA-II […] • Products covering UVB and UVA (280-400 nm).

[4] = Photostability in solution in a chemical solvent (Suntest CPS+); conditions: 25 μg deposited from methanol, absorbance vs non-irradiated control, in % (unit assumed); for Photostability at 5 MED, mean: Suntest irradiation 5 MED; for Photostability at 10 MED, mean: Suntest irradiation 10 MED
Source text: A Suntest CPS+(Atlas, Linsengenicht/Altenhasslan, Germany) was used. The Suntest makes it possible to reproduce the solar spectrum and thus to carry out exposures inside at any time without weather constraints.
The radiance of the solar simulator was carefully measured with a spectroradiometer (MSS 2044, Bielefeld, Germany). UVB and UVA intensities were 0.49 mW/cm^2 and 6.32 mW/cm^2, respectively. The MED value defined by COLIPA is 5.6 J/cm^2 in total UV (22). The UV total (UVA+UVB) accounts for 14.8% of the energy delivered by the lamp (power 460 W/m^2). An irradiation dose equivalent to 1 MED corresponds to 37.83 J/cm^2 (in total spectrum) delivered by the lamp.
The Suntest test duration is calculated using the following formula: t=H/E with: • E=illumination energy in W/m^2 • H=irradiation dose in J/m^2 • t=duration of the test in s
The solutions of the compounds are prepared at a concentration of 500 μg/ml in methanol. 50 μl (25 μg) of each solution are deposited in a crystallizer, then irradiated in the Suntest at 5, 10 and/or 20 MED. A non-irradiated control is prepared (deposit of 50 μl of solution and addition of 2.450 ml of methanol). The solvent evaporates during irradiation and the products are taken up in 2.5 ml of methanol. After irradiation, the absorbance of each solution is measured with the UV-visible spectrophotometer (Varian CARY 50 Scan).

| Compound | Maximum molar extinction coefficient UVA [1] [M⁻¹ cm⁻¹] | Maximum molar extinction coefficient UVB [1] [M⁻¹ cm⁻¹] | Maximum specific absorbance UVA [1] | Maximum specific absorbance UVB [1] | Wavelength of maximum molar extinction coefficient UVA [1] | Wavelength of maximum molar extinction coefficient UVB [1] | Wavelength of maximum specific absorbance UVA [1] | Wavelength of maximum specific absorbance UVB [1] | Solubilities: Soluble, DMSO [2] | Solubilities: Soluble, Transcutol [2] | Solubilities: Soluble (solvent in which the compound is soluble) [2] | Solubilities: Insoluble (solvent in which the compound is insoluble) [2] | Spectral distribution (UV bands absorbed) [3] | Photostability at 5 MED, mean [4] | Photostability at 10 MED, mean [4] | Absorption peaks [3] [nm] | Solubility (%) ([2]; excipient Finsol V NT ® (C12-C15 alkyl benzoate)) | Solubility (%) ([2]; excipient Isopropyl adipate) | Solubility (%) ([2]; excipient Myritol 318 ® (caprylic/capric triglycerides)) |
| --- | --- | --- | --- | --- | --- | --- | --- | --- | --- | --- | --- | --- | --- | --- | --- | --- | --- | --- | --- |
| 1,4-bis[5,6-(4,4′-(2-{2-[2-(2-methoxy-ethoxy)-ethoxy]-ethoxy}-ethoxy)-)-diphenyl-1,2,4-triazin-3-yl]benzene [WP41] | 91400 | 72000 | 669 | 527 | at 330 nm | at 305 nm | at 330 nm | at 305 nm | DMSO 2.7% | Transcutol 0.1% | DMC and AcOEt (PS) and MeOH (PS) | EtOH and Hexane and Myritol | absorb in UVB and UVA |  |  |  |  |  |  |
| c1ccc(-c2nnc(-c3ccc(-c4nnc(-c5ccccc5)c(-c5ccccc5)n4)cc3)nc2-c2ccccc2)cc1 [WP30, 1,4-bis(5,6-diphenyl-1,2,4-triazin-3-yl)benzene] | 50200 |  | 928 |  | at 325 nm |  | at 325 nm |  |  |  | DMSO or hot DMF; also recorded: Ethyl acetate (PS) | Acetonitrile and Benzene and Myritol and Transcutol and Water and MeOH and CHCl3 and Acetone | absorb in UVB and UVA | 77.75 | 56.12 | 325 |  |  |  |
| Oc1ccc(-c2nnc(-c3ccc(-c4nnc(-c5ccc(O)cc5)c(-c5ccc(O)cc5)n4)cc3)nc2-c2ccc(O)cc2)cc1 [WP35, 1,4-bis[5,6-(4,4′-dihydroxy)-diphenyl-1,2,4-triazin-3-yl]benzene] | 27800 | 29600 | 460 | 490 | at 355 nm | at 310 nm | at 355 nm | at 310 nm | DMSO 3.5% | Transcutol 0.5% |  | MeOH and CHCl3 and Ethyl acetate and Hexane and Myritol | absorb in UVB and UVA |  |  | 355 |  |  |  |
| CCCCCCCCCCCCCCCCCCOc1ccc(-c2nnc(-c3ccc(-c4nnc(-c5ccc(OCCCCCCCCCCCCCCCCCC)cc5)c(-c5ccc(OCCCCCCCCCCCCCCCCCC)cc5)n4)cc3)nc2-c2ccc(OCCCCCCCCCCCCCCCCCC)cc2)cc1 [WP38, 1,4-bis[5,6-(4,4′-di-octadecyloxy)-diphenyl-1,2,4-triazin-3-yl]benzene] |  |  |  |  |  |  |  |  |  |  | Benzene; also recorded: Toluene; also recorded: Myritol; also recorded: Transcutol | MeOH and DMC and AcOEt |  |  |  |  |  |  |  |
| Cc1ccc(-c2nnc(-c3ccc(-c4nnc(-c5ccc(C)cc5)c(-c5ccc(C)cc5)n4)cc3)nc2-c2ccc(C)cc2)cc1 [WP39, 1,4-bis[5,6-(4,4′-dimethyl)-diphenyl-1,2,4-triazin-3-yl]benzene] | 48200 |  | 808 |  | at 335 nm |  | at 335 nm |  |  |  | DMSO or hot DMF | Water and MeOH and CHCl3 and Acetone and Acetonitrile and Benzene | absorb in UVB and UVA |  |  |  |  |  |  |
| COc1ccc(-c2nnc(-c3ccc(-c4nnc(-c5ccc(OC)cc5)c(-c5ccc(OC)cc5)n4)cc3)nc2-c2ccc(OC)cc2)cc1 [WP40, 1,4-bis[5,6-(4,4′-dimethoxy)-diphenyl-1,2,4-triazin-3-yl]benzene] |  |  |  |  |  |  |  |  |  |  | DMSO or hot DMF | Water and MeOH and CHCl3 and Acetone and Acetonitrile and Benzene |  |  |  |  |  |  |  |
| Brc1ccc(-c2nnc(-c3ccc(-c4nnc(-c5ccc(Br)cc5)c(-c5ccc(Br)cc5)n4)cc3)nc2-c2ccc(Br)cc2)cc1 [WP52, 1,4-bis[5,6-(4,4′-dibromo)-diphenyl-1,2,4-triazin-3-yl]benzene] | 57300 |  | 669 |  | at 330 nm |  | at 330 nm |  |  |  | DMSO or hot DMF | Water and MeOH and CHCl3 and Acetone and Acetonitrile and Benzene and Myritol and Transcutol | absorb in UVB and UVA |  |  | 330 |  |  |  |
| Fc1ccc(-c2nnc(-c3ccc(-c4nnc(-c5ccc(F)cc5)c(-c5ccc(F)cc5)n4)cc3)nc2-c2ccc(F)cc2)cc1 [WP89, 1,4-bis[5,6-(4,4′-difluoro)-diphenyl-1,2,4-triazin-3-yl]benzene] | 47700 |  | 778 |  | at 330 nm |  | at 330 nm |  |  |  | Ethyl acetate |  | absorb in UVB and UVA |  |  | 330 |  |  |  |
| Clc1ccc(-c2nnc(-c3ccc(-c4nnc(-c5ccc(Cl)cc5)c(-c5ccc(Cl)cc5)n4)cc3)nc2-c2ccc(Cl)cc2)cc1 [WP100, 1,4-bis[5,6-(4,4′-dichloro)-diphenyl-1,2,4-triazin-3-yl]benzene] | 43400 |  | 640 |  | at 300 nm |  | at 100 nm |  |  |  | Hot DMSO | DCM and Et2O and Toluene and Octanol and EtOH and Myritol and Transcutol | absorb in UVB and UVA |  |  | 300 |  |  |  |
| c1ccc(-c2nnc(-c3ccc(-c4ccc(-c5nnc(-c6ccccc6)c(-c6ccccc6)n5)cc4)cc3)nc2-c2ccccc2)cc1 [WP135] | 57000 |  | 924 |  | at 330 nm |  | at 330 nm |  |  |  |  |  | absorb in UVB and UVA | 57.45 | 33.66 | 330 |  |  |  |
| CCCCCC[C@H](C)Oc1ccc(-c2nnc(-c3ccc(-c4nnc(-c5ccc(O[C@@H](C)CCCCCC)cc5)c(-c5ccc(O[C@@H](C)CCCCCC)cc5)n4)cc3)nc2-c2ccc(O[C@@H](C)CCCCCC)cc2)cc1 [WP149, 1,4-bis[5,6-bis(4,1-methylheptyloxyphenyl)-1,2,4-triazine-3-yl]benzene] |  |  |  |  |  |  |  |  |  |  |  |  |  | 80.40 | 38.16 |  | 4.5 | 2 | 2.5 |

From patent US7816520B2, “5,6-diphenyl-1,2,4-triazinic dimeric derivatives and the use thereof in the form of sun-protective agents” (Pierre Fabre Dermo-Cosmetique, priority 2004, dated 2010)
